From PubChem BioAssay (NCI)
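Five concentrations, 48 hours, 96-well plates. TGI: concentration producing complete growth inhibition.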

Experiments:
Experiment in all cases: NCI tumour cell line growth inhibition, 48 h
A498 renal = test system: A498 renal
MALME-3M melanoma = test system: MALME-3M melanoma
HCT-116 colon = test system: HCT-116 colon
IGROV1 ovarian = test system: IGROV1 ovarian
K-562 leukemia = test system: K-562 leukemia
U251 CNS = test system: U251 CNS
COLO 205 colon = test system: COLO 205 colon
KM12 colon = test system: KM12 colon
CCRF-CEM leukemia = test system: CCRF-CEM leukemia
SW-620 colon = test system: SW-620 colon
SK-MEL-2 melanoma = test system: SK-MEL-2 melanoma
OVCAR-4 ovarian = test system: OVCAR-4 ovarian
OVCAR-8 ovarian = test system: OVCAR-8 ovarian
TK-10 renal = test system: TK-10 renal
MOLT-4 leukemia = test system: MOLT-4 leukemia
UACC-62 melanoma = test system: UACC-62 melanoma
MDA-N = test system: MDA-N
NCI-H23 lung = test system: NCI-H23 lung

| Compound | TGI (A498 renal) [µM] | TGI (MALME-3M melanoma) [µM] | TGI (HCT-116 colon) [µM] | TGI (IGROV1 ovarian) [µM] | TGI (K-562 leukemia) [µM] | TGI (U251 CNS) [µM] | TGI (COLO 205 colon) [µM] | TGI (KM12 colon) [µM] | TGI (CCRF-CEM leukemia) [µM] | TGI (SW-620 colon) [µM] | TGI (SK-MEL-2 melanoma) [µM] | TGI (OVCAR-4 ovarian) [µM] | TGI (OVCAR-8 ovarian) [µM] | TGI (TK-10 renal) [µM] | TGI (MOLT-4 leukemia) [µM] | TGI (UACC-62 melanoma) [µM] | TGI (MDA-N) [µM] | TGI (NCI-H23 lung) [µM] |
| --- | --- | --- | --- | --- | --- | --- | --- | --- | --- | --- | --- | --- | --- | --- | --- | --- | --- | --- |
| NCc1ccc(-c2ccc(CN)s2)s1 | 23.1 | > 100 | > 100 | 76.3 | > 100 | > 100 | > 100 | > 100 | > 100 | > 100 | > 100 | > 100 | > 100 | 68.7 | > 100 | > 100 | > 100 | > 100 |
| Cc1cc(S(=O)(=O)Nc2nc(N)nc(N3N=CCC3C)n2)c(SCC(=O)O)cc1Cl (configuration not stated) | > 10 | > 10 | > 10 | > 10 | > 10 | > 10 | > 10 | > 10 | > 10 | > 10 | > 10 | > 10 | > 10 | > 10 | > 10 | > 10 | > 10 | > 10 |
| CC(NC(=O)OCc1ccccc1)NC(=O)OC(C)(C)C (configuration not stated) | > 100 | > 100 | > 100 | > 100 | > 100 | > 100 | > 100 | > 100 | > 100 | > 100 | > 100 | > 100 | > 100 | > 100 | > 100 | > 100 | > 100 | > 100 |
| C[N+]12CCCCC1C(COc1cccc3cccnc13)CCC2 (configuration not stated) | > 100 | > 100 | > 100 | > 100 | > 100 | > 100 | > 100 | > 100 | > 100 | > 100 | > 100 | > 100 | > 100 | > 100 | > 100 | > 100 | > 100 | > 100 |
| CC(=O)c1c(-c2ccc(Cl)cc2)c(-c2ccc(Cl)cc2)n[nH]c1=O | 77.4 | 79 | > 100 | > 100 | > 100 | > 100 | > 100 | > 100 | > 100 | > 100 | 81.3 | 94.8 | > 100 | > 100 | > 100 | 43.3 | > 100 | > 100 |
| O=c1[nH]c2cccc([N+](=O)[O-])c2c(=O)n1-c1ccc(Cl)cc1 | 30.6 | 27.6 | 61.7 | 40.1 | 34.9 | 59.7 | 16.6 | 34.4 | 47.1 | 27.1 | 25.6 | 16.4 | 29.4 | 39 | 43.2 | 23.1 | 26.6 | 42.1 |
| O=S(=O)(O)CCSSCCS(=O)(=O)O | > 1000 | > 1000 | > 1000 | > 1000 | > 1000 | > 1000 | > 1000 | > 1000 | > 1000 | > 1000 | > 1000 | > 1000 | > 1000 | > 1000 | > 1000 | > 1000 | > 1000 | > 1000 |
| CC1=NN(c2ccccc2)C2(C1)C(Cl)C(=O)N2c1nc2ccccc2s1 (configuration not stated) | > 100 | > 100 | 51.5 | > 100 | > 100 | > 100 | 80.6 | > 100 | 48.8 | > 100 | 78.1 | > 100 | > 100 | > 100 | 78.6 | > 100 | > 100 | 77.6 |
| C1C2CC3CC1CC(c1nn4c(C56CC7CC(CC(C7)C5)C6)nnc4s1)(C2)C3 | > 100 | > 100 | > 100 | > 100 | > 100 | > 100 | > 100 | > 100 | > 100 | > 100 | > 100 | > 100 | – | > 100 | > 100 | > 100 | > 100 | > 100 |
| Cn1c(-c2cccs2)cc(-c2cccs2)c1-c1cccs1 | > 100 | > 100 | > 100 | > 100 | > 100 | > 100 | 34.1 | > 100 | > 100 | > 100 | > 100 | > 100 | > 100 | > 100 | > 100 | > 100 | > 100 | > 100 |
| [O-][n+]1nc(N2CCOCC2)nc2ccccc21 | > 100 | > 100 | > 100 | > 100 | > 100 | > 100 | > 100 | > 100 | > 100 | > 100 | > 100 | – | > 100 | > 100 | > 100 | > 100 | > 100 | > 100 |
| CCCN(CCc1ccc(-c2ccccc2)cc1)CCc1ccc2n[nH]nc2c1 | 36.2 | 22.8 | 18.1 | 22.1 | 18.4 | 37.6 | 9.07 | 34.1 | 19.4 | 36.3 | 33.4 | 33.3 | 36.3 | 25.7 | 19.1 | 24 | 19.1 | 25.8 |
| COc1nn(Cc2ccccn2)c2ccc([N+](=O)[O-])cc12 | > 100 | > 100 | > 100 | > 100 | > 100 | > 100 | > 100 | > 100 | > 100 | > 100 | > 100 | > 100 | > 100 | > 100 | > 100 | > 100 | 95.5 | > 100 |
| CC(C)OC(=O)c1ccc(NCC2=CC(=O)C=CC2=O)cc1 | 90.3 | 22.7 | 28.6 | 26.4 | 7.39 | 31.3 | 13.7 | 41.8 | 6.48 | 26.5 | 31.5 | 26.2 | 29.7 | 28.6 | 6.14 | 31.4 | 29.2 | 29 |
| CC(C)CCCC(C)[C@H]1CC[C@H]2n3c(nnc3-c3ccccc3)CCC[C@]12C (some centres not stated) | 31.8 | 53.1 | 40.4 | 23.4 | 13.6 | 23.5 | 14.8 | > 100 | 24.6 | 47.5 | 29.8 | 32.5 | 67.2 | 57.2 | 13.2 | 27.3 | 31 | 28.8 |
| O=C(O)c1cccc(Nc2c(C(=O)O)cccc2[N+](=O)[O-])c1 | > 100 | > 100 | > 100 | > 100 | > 100 | – | > 100 | > 100 | > 100 | – | > 100 | > 100 | > 100 | > 100 | > 100 | > 100 | > 100 | > 100 |
| COc1ccccc1C[C@@H]1OC2(C=CC(=O)CC2SC(=O)c2ccccc2)O[C@H]1Cc1ccccc1OC (some centres not stated) | 5.67 | 4.26 | 0.651 | 2.74 | 27.3 | 2.81 | 3.16 | 8.4 | 1.03 | 1.35 | 3.31 | 3.69 | – | 5.07 | 19.5 | 7 | 6.16 | 5.43 |
| OCC1OC(NC(=S)NCCC(F)(F)C(F)(F)C(F)(F)C(F)(F)C(F)(F)C(F)(F)F)C(O)C(O)C1O (configuration not stated) | 56.6 | > 100 | > 100 | > 100 | > 100 | > 100 | > 100 | > 100 | > 100 | > 100 | > 100 | > 100 | – | > 100 | > 100 | > 100 | > 100 | > 100 |
| C=CC(C)(C)n1cc(C2=C3OC(=O)C(c4cn(C(C)(C)C=C)c5ccccc45)=C3OC2=O)c2ccccc21 | > 100 | > 100 | > 100 | > 100 | > 100 | > 100 | > 100 | > 100 | > 100 | > 100 | > 100 | > 100 | > 100 | > 100 | > 100 | – | > 100 | > 100 |
| CC(=O)NC1C(OCc2ccccc2)OC(CO)C(O)C1OC(C)C(=O)NC(C(=O)NC(CCC(=O)NCCCC(=O)Nc1ccc2c(c1)CN1C(=O)c3ccccc3C1=N2)C(N)=O)C(C)C (configuration not stated) | > 100 | > 100 | > 100 | > 100 | > 100 | > 100 | > 100 | > 100 | > 100 | > 100 | > 100 | > 100 | – | > 100 | > 100 | > 100 | > 100 | > 100 |
